ChEMBL document CHEMBL1909046, “DrugMatrix in vitro pharmacology data”
pIC50, pKi: −log10 of the molar value.

What was measured:
[1] = DRUGMATRIX: Calcium Channel Type L, Phenylalkylamine radioligand binding (ligand: [3H] (-)-Desmethoxyverapamil (D-888)); assay type: cell membranes, Rattus norvegicus, Wistar, Brain, Membrane; conditions: Not Active = under 50% inhibition at 10 µM
[2] = DRUGMATRIX: GABAA, Muscimol, Central radioligand binding (ligand: [3H] Muscimol); assay type: cell membranes, Rattus norvegicus, Wistar, Brain, Membrane; conditions: Not Active = under 50% inhibition at 10 µM
[3] = molecular target: Mu-type opioid receptor (Homo sapiens, UniProt P35372); test: DRUGMATRIX: Opiate mu (OP3, MOP) radioligand binding (ligand: [3H] Diprenorphine); assay type: cell membranes, CHO-K1, Membrane; conditions: Not Active = under 50% inhibition at 10 µM; for IC50: cho-k1
[4] = DRUGMATRIX: Potassium Channel [KATP] radioligand binding (ligand: [3H] Glyburide); assay type: cell membranes, Membrane; conditions: hit-t15; Not Active = under 50% inhibition at 10 µM
[5] = molecular target: T1, Cytochrome P450 2A6 (Homo sapiens, UniProt P11509); conditions: bti-tn-5b1-4; note: in other assays of this panel Not Active means under 50% inhibition at 10 µM
T1 sequence (P11509 whole entry): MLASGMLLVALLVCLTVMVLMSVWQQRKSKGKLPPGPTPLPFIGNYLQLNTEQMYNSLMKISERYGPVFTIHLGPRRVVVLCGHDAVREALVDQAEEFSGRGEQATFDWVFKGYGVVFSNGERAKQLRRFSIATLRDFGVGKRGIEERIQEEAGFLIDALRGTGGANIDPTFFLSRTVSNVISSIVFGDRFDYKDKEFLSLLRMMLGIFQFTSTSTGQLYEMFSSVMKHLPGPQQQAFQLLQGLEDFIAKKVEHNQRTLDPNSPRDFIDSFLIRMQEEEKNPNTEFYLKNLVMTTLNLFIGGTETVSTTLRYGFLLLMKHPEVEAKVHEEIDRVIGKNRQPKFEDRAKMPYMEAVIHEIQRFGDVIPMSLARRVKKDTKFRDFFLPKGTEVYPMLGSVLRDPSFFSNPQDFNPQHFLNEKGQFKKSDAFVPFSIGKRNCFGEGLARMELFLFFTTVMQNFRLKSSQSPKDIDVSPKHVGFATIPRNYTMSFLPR

[6] = molecular target: Cytochrome P450 2D6 (Homo sapiens, UniProt P10635); conditions: bti-tn-5b1-4; note: in other assays of this panel Not Active means under 50% inhibition at 10 µM
[7] = molecular target: Voltage-gated inwardly rectifying potassium channel KCNH2 (Homo sapiens, UniProt Q12809); conditions: hek293; note: in other assays of this panel Not Active means under 50% inhibition at 10 µM
Voltage-gated inwardly rectifying potassium channel KCNH2, sequence (Q12809 whole entry): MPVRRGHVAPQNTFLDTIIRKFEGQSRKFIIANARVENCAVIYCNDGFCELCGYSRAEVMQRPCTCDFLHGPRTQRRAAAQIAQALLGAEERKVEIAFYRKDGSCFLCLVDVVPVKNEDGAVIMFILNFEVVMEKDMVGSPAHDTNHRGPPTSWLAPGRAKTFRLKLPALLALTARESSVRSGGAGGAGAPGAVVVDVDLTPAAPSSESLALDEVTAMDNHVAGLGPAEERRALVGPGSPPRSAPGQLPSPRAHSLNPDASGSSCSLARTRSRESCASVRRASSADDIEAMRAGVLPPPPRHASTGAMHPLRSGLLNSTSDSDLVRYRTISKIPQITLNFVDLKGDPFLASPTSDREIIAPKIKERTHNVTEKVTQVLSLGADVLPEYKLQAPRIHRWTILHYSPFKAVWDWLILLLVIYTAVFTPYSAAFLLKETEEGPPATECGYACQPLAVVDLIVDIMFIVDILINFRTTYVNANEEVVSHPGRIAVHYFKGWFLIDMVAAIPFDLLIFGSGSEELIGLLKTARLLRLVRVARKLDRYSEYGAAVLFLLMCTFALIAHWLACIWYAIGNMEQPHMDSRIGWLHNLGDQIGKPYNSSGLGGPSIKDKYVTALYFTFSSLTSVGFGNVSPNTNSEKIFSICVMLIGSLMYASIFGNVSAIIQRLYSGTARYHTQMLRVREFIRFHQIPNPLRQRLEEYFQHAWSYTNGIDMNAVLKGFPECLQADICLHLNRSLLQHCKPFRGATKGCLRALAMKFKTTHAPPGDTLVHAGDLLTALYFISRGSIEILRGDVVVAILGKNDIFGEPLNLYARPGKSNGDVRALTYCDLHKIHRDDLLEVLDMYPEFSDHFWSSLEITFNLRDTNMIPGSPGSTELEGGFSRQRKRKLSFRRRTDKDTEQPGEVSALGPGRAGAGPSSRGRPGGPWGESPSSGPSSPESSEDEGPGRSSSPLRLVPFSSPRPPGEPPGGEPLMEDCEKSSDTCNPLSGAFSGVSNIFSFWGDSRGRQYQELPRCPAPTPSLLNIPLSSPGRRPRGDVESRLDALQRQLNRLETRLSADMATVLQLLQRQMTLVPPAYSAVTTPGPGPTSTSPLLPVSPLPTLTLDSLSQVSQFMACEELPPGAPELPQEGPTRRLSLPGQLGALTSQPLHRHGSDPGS

Mu-type opioid receptor, sequence (P35372 whole entry): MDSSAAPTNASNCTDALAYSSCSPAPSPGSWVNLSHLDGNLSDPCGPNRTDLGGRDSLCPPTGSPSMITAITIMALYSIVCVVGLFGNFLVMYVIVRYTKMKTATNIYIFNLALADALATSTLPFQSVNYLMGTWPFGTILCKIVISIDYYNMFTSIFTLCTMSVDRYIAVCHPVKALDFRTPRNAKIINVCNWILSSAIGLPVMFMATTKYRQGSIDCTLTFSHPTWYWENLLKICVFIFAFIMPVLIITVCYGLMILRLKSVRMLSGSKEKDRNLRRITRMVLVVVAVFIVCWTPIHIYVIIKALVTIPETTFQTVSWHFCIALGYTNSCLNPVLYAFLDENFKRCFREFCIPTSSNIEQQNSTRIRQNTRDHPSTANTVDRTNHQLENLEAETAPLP
Cytochrome P450 2D6, sequence (P10635 whole entry): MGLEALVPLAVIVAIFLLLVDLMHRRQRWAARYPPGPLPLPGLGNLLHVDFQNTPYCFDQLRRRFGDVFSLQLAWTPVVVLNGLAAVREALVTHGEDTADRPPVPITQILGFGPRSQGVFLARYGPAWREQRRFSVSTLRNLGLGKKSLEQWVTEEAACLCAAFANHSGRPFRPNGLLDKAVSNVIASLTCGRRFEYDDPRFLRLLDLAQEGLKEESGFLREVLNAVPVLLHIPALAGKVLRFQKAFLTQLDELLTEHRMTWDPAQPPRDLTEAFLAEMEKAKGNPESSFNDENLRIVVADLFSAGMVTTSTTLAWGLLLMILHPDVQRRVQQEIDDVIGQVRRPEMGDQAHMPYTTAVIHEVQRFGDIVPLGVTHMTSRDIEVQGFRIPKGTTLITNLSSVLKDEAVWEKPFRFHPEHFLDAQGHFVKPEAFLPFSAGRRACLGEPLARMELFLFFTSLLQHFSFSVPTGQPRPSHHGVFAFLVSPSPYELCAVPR

Row | SMILES | IC50 [1] | Ki [1] | IC50 [2] | Ki [2] | IC50 [3] | IC50 [4] | Ki [4] | IC50 [5] | Ki [5] | IC50 [6] | Ki [6] | IC50 [7] | Ki [7] | pIC50 ([1]; read-out: IC50) | pKi ([1]; read-out: Ki) | pKi [3] | pIC50 ([3]; read-out: IC50)
1 | O=C(O)CCCc1cccs1 | Not Active | Not Active | Not Active | Not Active | Not Active | Not Active | Not Active | Not Active | Not Active | Not Active | Not Active | Not Active | Not Active | – | – | – | –
2 | COc1ccccc1N | Not Active | Not Active | Not Active | Not Active | Not Active | Not Active | Not Active | Not Active | Not Active | Not Active | Not Active | Not Active | Not Active | – | – | – | –
3 | Cc1c(O)cccc1C(=O)N[C@@H](CSc1ccccc1)[C@H](O)CN1C[C@H]2CCCC[C@H]2C[C@H]1C(=O)NC(C)(C)C | – | – | Not Active | Not Active | – | Not Active | Not Active | Not Active | Not Active | Not Active | Not Active | Not Active | Not Active | 4.74 | 4.75 | 5.23 | 4.84
4 | CC(O)COC[C@H]1O[C@@H]2O[C@H]3[C@H](O)[C@@H](O)[C@@H](O[C@H]4[C@H](O)[C@@H](O)[C@@H](O[C@H]5[C@H](O)[C@@H](O)[C@@H](O[C@H]6[C@H](O)[C@@H](O)[C@@H](O[C@H]7[C@H](O)[C@@H](O)[C@@H](O[C@H]8[C@H](O)[C@@H](O)[C@@H](O[C@H]1[C@H](O)[C@H]2O)O[C@@H]8COCC(C)O)O[C@@H]7COCC(C)O)O[C@@H]6COCC(C)O)O[C@@H]5COCC(C)O)O[C@@H]4COCC(C)O)O[C@@H]3COCC(C)O (stereo partly drawn) [2-HYDROXYPROPYL-BETA-CYCLODEXTRIN] | Not Active | Not Active | Not Active | Not Active | Not Active | Not Active | Not Active | Not Active | Not Active | Not Active | Not Active | Not Active | Not Active | – | – | – | –
5 | NC(=O)c1cccc(N)c1 [3-AMINOBENZAMIDE] | Not Active | Not Active | Not Active | Not Active | Not Active | Not Active | Not Active | Not Active | Not Active | Not Active | Not Active | Not Active | Not Active | – | – | – | –
6 | C[C@H]1O[C@H](O[C@H]2[C@H](O)[C@@H](O)[C@@H](O[C@H]3[C@H](O)[C@@H](O)C(O)O[C@@H]3CO)O[C@@H]2CO)[C@H](O)[C@@H](O)[C@@H]1N[C@H]1C=C(CO)[C@@H](O)[C@H](O)[C@H]1O (some centres not stated) [ACARBOSE] | Not Active | Not Active | Not Active | Not Active | Not Active | Not Active | Not Active | Not Active | Not Active | Not Active | Not Active | Not Active | Not Active | – | – | – | –
7 | NCCCNCCSP(=O)(O)O [AMIFOSTINE] | Not Active | Not Active | Not Active | Not Active | Not Active | Not Active | Not Active | Not Active | Not Active | Not Active | Not Active | Not Active | Not Active | – | – | – | –
8 | CC(=O)Oc1ccccc1C(=O)O [ASPIRIN] | Not Active | Not Active | Not Active | Not Active | Not Active | Not Active | Not Active | Not Active | Not Active | Not Active | Not Active | Not Active | Not Active | – | – | – | –
9 | CC(=O)OC[C@H]1O[C@@H](n2ncc(=O)[nH]c2=O)[C@H](OC(C)=O)[C@@H]1OC(C)=O [AZARIBINE] | Not Active | Not Active | Not Active | Not Active | Not Active | Not Active | Not Active | Not Active | Not Active | Not Active | Not Active | Not Active | Not Active | – | – | – | –
10 | C[C@H]1[C@H](NC(=O)/C(=N\OC(C)(C)C(=O)O)c2csc(N)n2)C(=O)N1S(=O)(=O)O [AZTREONAM] | Not Active | Not Active | Not Active | Not Active | Not Active | Not Active | Not Active | Not Active | Not Active | Not Active | Not Active | Not Active | Not Active | – | – | – | –
11 | O=C(O)CCNC(=O)c1ccc(/N=N/c2ccc(O)c(C(=O)O)c2)cc1 [BALSALAZIDE] | Not Active | Not Active | Not Active | Not Active | Not Active | Not Active | Not Active | Not Active | Not Active | Not Active | Not Active | Not Active | Not Active | – | – | – | –
12 | COc1cc(OC)c(C(=O)CCCN2CCCC2)c(OC)c1 [BUFLOMEDIL] | Not Active | Not Active | Not Active | Not Active | Not Active | Not Active | Not Active | Not Active | Not Active | Not Active | Not Active | Not Active | Not Active | – | – | – | –
13 | Cn1c(=O)c2c(ncn2C)n(C)c1=O [CAFFEINE] | Not Active | Not Active | Not Active | Not Active | Not Active | Not Active | Not Active | Not Active | Not Active | Not Active | Not Active | Not Active | Not Active | – | – | – | –
14 | ClC(Cl)(Cl)Cl [CARBON TETRACHLORIDE] | Not Active | Not Active | Not Active | Not Active | Not Active | Not Active | Not Active | Not Active | Not Active | Not Active | Not Active | Not Active | Not Active | – | – | – | –
15 | CO/N=C(\C(=O)N[C@@H]1C(=O)N2C(C(=O)O)=C(COC(C)=O)CS[C@H]12)c1csc(N)n1 [CEFOTAXIME] | Not Active | Not Active | Not Active | Not Active | Not Active | Not Active | Not Active | Not Active | Not Active | Not Active | Not Active | Not Active | Not Active | – | – | – | –
16 | CNC1=Nc2ccc(Cl)cc2C(c2ccccc2)=[N+]([O-])C1 [CHLORDIAZEPOXIDE] | Not Active | Not Active | Not Active | Not Active | Not Active | Not Active | Not Active | Not Active | Not Active | Not Active | Not Active | Not Active | Not Active | – | – | – | –
17 | Cc1cc(O)cc(C)c1Cl [CHLOROXYLENOL] | Not Active | Not Active | Not Active | Not Active | Not Active | Not Active | Not Active | Not Active | Not Active | Not Active | Not Active | Not Active | Not Active | – | – | – | –
